# In patent US20220401514A1, “ANTIMICROBIAL, BACTERIOPHAGE-DERIVED POLYPEPTIDES AND THEIR USE AGAINST GRAM-NEGATIVE AND ACID-FAST BACTERIA” (CONTRAFECT CORPORATION, priority 2019, published 2022):
# Read-outs that look alike come from different tables or passages of the source.
# Legend:
# M. avium = experiment: 45 hr MIC against M. avium (NTM); format: cell-based, Mycobacterium avium; conditions: M. avium Chester ATCC 700898
# [1] = system: carbapenem-resistant bacterial strains; experiment: organism not typed; format: cell-based
# Excerpt: (§1) Determination of Minimal Inhibitory Concentrations (MIC).
# [2] = system: P. aeruginosa strain CFS-1292; experiment: MIC in presence of mouse, rat, rabbit and human serum ([…] each); format: cell-based, Pseudomonas aeruginosa; conditions: P. aeruginosa CFS-1292
# Description: The activity of several Chp peptides against P. aeruginosa strain CFS-1292 in animal serum was evaluated. […] Rat, mouse, and rabbit serum were all obtained from pooled gender samples.
# M. intracellulare = experiment: 45 hr MIC against M. intracellulare (NTM); format: cell-based, Mycobacterium intracellulare; conditions: M. intracellulare (Cuttino and McCabe) Runyon ATCC 13950
# [3] = system: M. kansasii Hauduroy ATCC 12478; experiment: 45 hr MIC against M. kansasii (NTM), Mueller Hinton broth; format: cell-based, Mycobacterium kansasii
# [4] = system: Mycobacterium tuberculosis strains
# Description: MIC values for various Chp peptides were determined using the CLSI method for broth microdilution in 96-well microtiter format.
# Next, MIC values for various Chp peptides were determined using the CLSI method above for broth microdilution in 96-well microtiter format for two different Mycobacterium tuberculosis strains. The MIC was determined as explained above for the NTM strains.
# [5] = system: P. aeruginosa strain CFS-1292; experiment: MIC in presence and absence of Survanta pulmonary surfactant; format: cell-based, Pseudomonas aeruginosa
# Escherichia coli = experiment: microbe, parasite or virus in culture; format: cell-based; conditions: for MIC50 / MIC100 / MIC Range: E. coli isolates (n per peptide in table)
# How it was run: (§2)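 Peptide MICs were determined by growth inhibition in CAA medium supplemented with human serum.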
# Enterobacter cloacae = experiment: microbe, parasite or virus in culture; format: cell-based; conditions: for MIC50 / MIC100 / MIC Range: E. cloacae isolates (n per peptide in table)
# How it was run: as §2
# Pseudomonas aeruginosa = experiment: microbe, parasite or virus in culture; format: cell-based; conditions: for MIC: CAA without human serum; for MIC50 / MIC100 / MIC Range: P. aeruginosa isolates (n per peptide in table)
# [6] = system: Pseudomonas aeruginosa, Escherichia coli, Enterobacter cloacae, Klebsiella pneumoniae, and Acinetobacter baumannii; experiment: MIC against a range of Gram-negative organisms (statements covering several species); format: cell-based; conditions: Tables 40-44 isolates
# How it was run: as §2
# Klebsiella pneumoniae = format: cell-based; conditions: for MIC50 / MIC100 / MIC Range: K. pneumoniae isolates (n per peptide in table); for MIC: Klebsiella pneumoniae HM-44, CAA supplemented with human serum
# Description: as §1
# Additional MIC testing was performed for several peptides against the ESKAPE pathogens Escherichia coli, Enterobacter cloacae, Klebsiella pneumoniae, and Acinetobacter baumannii, in CAA supplemented with human serum (Table D).
# Acinetobacter baumannii = experiment: microbe, parasite or virus in culture; format: cell-based; conditions: for MIC50 / MIC100 / MIC Range: A. baumannii isolates (n per peptide in table)
# M. fortuitum = experiment: 45 hr MIC against M. fortuitum (NTM); format: cell-based, Mycobacterium fortuitum; conditions: M. fortuitum subsp. Fortuitum da Costa Cruz. ATCC 6841
# M. scrofulaceum = experiment: 45 hr MIC against M. scrofulaceum (NTM); format: cell-based, Mycobacterium scrofulaceum; conditions: M. scrofulaceum Prissick and Masson ATCC 19981
# [7] = carbapenem-resistant isolate PA19
# [8] = carbapenem-resistant isolate PA20
# [9] = carbapenem-resistant isolate PA21
# [10] = carbapenem-resistant isolate PA22
# [11] = carbapenem-resistant isolate PA23
# [12] = carbapenem-resistant isolate PA24
# [13] = carbapenem-resistant isolate WLC-452
# [14] = Mycobacterium tuberculosis (Zopf) Lehmann and Neumann ATCC 25177
# [15] = Mycobacterium tuberculosis (Zopf) Lehmann and Neumann ATCC 35817
# [16] = CAA media + 0.19 mg/mL Survanta
# [17] = E. coli (ATCC 25922, MIC control strain), RSC 813, CAA without human serum
# [18] = E. coli (HM346, colon, Crohn's disease), RSC 1212, CAA without human serum
# [19] = Escherichia coli ATCC 25922, CAA supplemented with human serum
# [20] = Enterobacter cloacae (ATCC 13047, MIC control strain), RSC 1240, CAA without human serum
# [21] = Enterobacter cloacae ATCC 13047, CAA supplemented with human serum
# [22] = P. aeruginosa 453 (Human clinical isolate, HSS), RSC 1292
# [23] = P. aeruginosa (ATCC 14213, human hip wound), RSC 1111
# [24] = P. aeruginosa (ATCC 15152, abscess in middle ear), RSC 1110
# [25] = P. aeruginosa (ATCC 15692, infected wound), RSC 489
# [26] = P. aeruginosa (ATCC 15692, infected wound), RSC 1115
# [27] = P. aeruginosa (ATCC 17646, human liver abscess), RSC 1109
# [28] = P. aeruginosa (ATCC 19142, tracheobronchial secretion), RSC 1108
# [29] = P. aeruginosa (ATCC 25102, bacteriophage host), RSC 1114
# [30] = P. aeruginosa (ATCC 27853, MIC control strain), RSC 815
# [31] = P. aeruginosa (ATCC BAA-27, lab strain), RSC 1113
# [32] = P. aeruginosa (PAO1, alternate source, HER1018), RSC 490
# [33] = Acinetobacter baumannii (clinical isolate HSS), RSC 30, CAA without human serum
# [34] = Acinetobacter baumannii (clinical isolate HSS), RSC 32, CAA without human serum
# [35] = Acinetobacter baumannii ATCC BAA 747, CAA supplemented with human serum
sequence,measurement,setting,value
MARRRYRLPRRRSRRLFSRTALRMHPRNRLRRIMRGGIRF [Chp6],45 hr MIC,M. avium,1 µg/mL
same,MIC,[1]; [7],0.5 µg/mL
same,MIC,[1]; [8],1 µg/mL
same,MIC,[1]; [9],1 µg/mL
same,MIC,[1]; [10],1 µg/mL
same,MIC,[1]; [11],1 µg/mL
same,MIC,[1]; [12],1 µg/mL
same,MIC,[1]; [13],0.25 µg/mL
same,MIC BALB/C Mouse Serum,[2]; BALB/C mouse serum […],32 µg/mL
same,MIC CAA,[2]; CAA,1 µg/mL
same,MIC New Zealand White Rabbit Serum,[2]; New Zealand White rabbit serum […],4 µg/mL
same,MIC Sprague Dawley Rat Serum,[2]; Sprague Dawley rat serum […],4 µg/mL
same,MIC Human Serum,[2]; human serum […],1 µg/mL
same,45 hr MIC,M. intracellulare,0.5 µg/mL
same,45 hr MIC,[3],1 µg/mL
same,MIC,[4]; [14],32 µg/mL
same,MIC,[4]; [15],4 µg/mL
same,MIC,[5]; [16],0.5 µg/mL
same,MIC,[5]; CAA media + […] Survanta,0.5 µg/mL
same,MIC,[5]; CAA media alone,0.5 µg/mL
same,MIC,Escherichia coli; [17],2 µg/mL
same,MIC,Escherichia coli; [18],2 µg/mL
same,MIC50,Escherichia coli,0.5 µg/mL
same,MIC100,Escherichia coli,1 µg/mL
same,MIC Range,Escherichia coli,0.25 to 2 µg/mL
same,MIC,Escherichia coli; [19],1 µg/mL
same,MIC50,Enterobacter cloacae,0.5 µg/mL
same,MIC100,Enterobacter cloacae,1 µg/mL
same,MIC Range,Enterobacter cloacae,0.25 to 2 µg/mL
same,MIC,Enterobacter cloacae; [20],4 µg/mL
same,MIC,Enterobacter cloacae; [21],2 µg/mL
same,MIC,Pseudomonas aeruginosa; [22],2 µg/mL
same,MIC,Pseudomonas aeruginosa; [23],4 µg/mL
same,MIC,Pseudomonas aeruginosa; [24],2 µg/mL
same,MIC,Pseudomonas aeruginosa; [25],2 µg/mL
same,MIC,Pseudomonas aeruginosa; [26],4 µg/mL
same,MIC,Pseudomonas aeruginosa; [27],4 µg/mL
same,MIC,Pseudomonas aeruginosa; [28],2 µg/mL
same,MIC,Pseudomonas aeruginosa; [29],2 µg/mL
same,MIC,Pseudomonas aeruginosa; [30],1 µg/mL
same,MIC,Pseudomonas aeruginosa; [31],2 µg/mL
same,MIC,Pseudomonas aeruginosa; [32],1 µg/mL
same,MIC50,Pseudomonas aeruginosa,1 µg/mL
same,MIC100,Pseudomonas aeruginosa,1 µg/mL
same,MIC Range,Pseudomonas aeruginosa,0.5 to 1 µg/mL
same,"activity (good = MIC100 of ≤4) against all of P. aeruginosa, K. pneumoniae, A. baumannii, E. cloacae, and E. coli",[6],good activity
same,MIC50,Klebsiella pneumoniae,0.5 µg/mL
same,MIC100,Klebsiella pneumoniae,1 µg/mL
same,MIC Range,Klebsiella pneumoniae,0.125 to 1 µg/mL
same,MIC,Klebsiella pneumoniae,0.125 µg/mL
same,MIC50,Acinetobacter baumannii,0.25 µg/mL
same,MIC100,Acinetobacter baumannii,0.5 µg/mL
same,MIC Range,Acinetobacter baumannii,0.125 to 1 µg/mL
same,MIC,Acinetobacter baumannii; [33],2 µg/mL
same,MIC,Acinetobacter baumannii; [34],2 µg/mL
same,MIC,Acinetobacter baumannii; [35],1 µg/mL
same,45 hr MIC,M. fortuitum,4 µg/mL
same,45 hr MIC,M. scrofulaceum,2 µg/mL
MVRRRRLRRRISRRIFRRTVARVGRRRRSFRGGIRF [Chp1],45 hr MIC,M. avium,4 µg/mL
same,MIC,[1]; [7],2 µg/mL
same,MIC,[1]; [8],4 µg/mL
same,MIC,[1]; [9],4 µg/mL
same,MIC,[1]; [10],4 µg/mL
same,MIC,[1]; [11],4 µg/mL
same,MIC,[1]; [12],4 µg/mL
same,MIC,[1]; [13],2 µg/mL
same,45 hr MIC,M. intracellulare,4 µg/mL
same,45 hr MIC,[3],4 µg/mL
same,MIC,[4]; [14],64 µg/mL
same,MIC,[4]; [15],32 µg/mL
same,MIC,[5]; [16],2 µg/mL
same,MIC,[5]; CAA media + […] Survanta,2 µg/mL
same,MIC,[5]; CAA media alone,1 µg/mL
same,MIC,Escherichia coli; [17],8 µg/mL
same,MIC,Escherichia coli; [18],8 µg/mL
same,MIC50,Escherichia coli,2 µg/mL
same,MIC100,Escherichia coli,4 µg/mL
same,MIC Range,Escherichia coli,1 to 4 µg/mL
same,MIC,Escherichia coli; [19],2 µg/mL
same,MIC50,Enterobacter cloacae,2 µg/mL
same,MIC100,Enterobacter cloacae,4 µg/mL
same,MIC Range,Enterobacter cloacae,2 to 4 µg/mL
same,MIC,Enterobacter cloacae; [20],8 µg/mL
same,MIC,Enterobacter cloacae; [21],4 µg/mL
same,MIC,Pseudomonas aeruginosa; [22],8 µg/mL
same,MIC,Pseudomonas aeruginosa; [23],8 µg/mL
same,MIC,Pseudomonas aeruginosa; [24],4 µg/mL
same,MIC,Pseudomonas aeruginosa; [25],4 µg/mL
same,MIC,Pseudomonas aeruginosa; [26],8 µg/mL
same,MIC,Pseudomonas aeruginosa; [27],8 µg/mL
same,MIC,Pseudomonas aeruginosa; [28],8 µg/mL
same,MIC,Pseudomonas aeruginosa; [29],8 µg/mL
same,MIC,Pseudomonas aeruginosa; [30],8 µg/mL
same,MIC,Pseudomonas aeruginosa; [31],8 µg/mL
same,MIC,Pseudomonas aeruginosa; [32],8 µg/mL
same,MIC50,Pseudomonas aeruginosa,2 µg/mL
same,MIC100,Pseudomonas aeruginosa,4 µg/mL
same,MIC Range,Pseudomonas aeruginosa,1 to 4 µg/mL
same,MIC50,Klebsiella pneumoniae,2 µg/mL
same,MIC100,Klebsiella pneumoniae,2 µg/mL
same,MIC Range,Klebsiella pneumoniae,1 to 4 µg/mL
same,MIC,Klebsiella pneumoniae,1 µg/mL
same,MIC50,Acinetobacter baumannii,2 µg/mL
same,MIC100,Acinetobacter baumannii,4 µg/mL
same,MIC Range,Acinetobacter baumannii,1 to 4 µg/mL
same,MIC,Acinetobacter baumannii; [33],8 µg/mL
same,MIC,Acinetobacter baumannii; [34],8 µg/mL
same,MIC,Acinetobacter baumannii; [35],2 µg/mL
same,45 hr MIC,M. fortuitum,16 µg/mL
same,45 hr MIC,M. scrofulaceum,4 µg/mL
